# Biological target: T1, P-gp (LCC6MDR cells) (Homo sapiens, UniProt P08183)
# T1 construct: expressed in transfected cells; host or cells: LCC6MDR (human breast cancer line)
# Experiment: Reversal of P-gp-mediated paclitaxel resistance in LCC6MDR
# Type: cell-based
# Settings: value without asterisk; read-out: EC50 needed for reversing P-gp-mediated paclitaxel resistance, LCC6MDR
# T1 sequence (P08183 whole entry): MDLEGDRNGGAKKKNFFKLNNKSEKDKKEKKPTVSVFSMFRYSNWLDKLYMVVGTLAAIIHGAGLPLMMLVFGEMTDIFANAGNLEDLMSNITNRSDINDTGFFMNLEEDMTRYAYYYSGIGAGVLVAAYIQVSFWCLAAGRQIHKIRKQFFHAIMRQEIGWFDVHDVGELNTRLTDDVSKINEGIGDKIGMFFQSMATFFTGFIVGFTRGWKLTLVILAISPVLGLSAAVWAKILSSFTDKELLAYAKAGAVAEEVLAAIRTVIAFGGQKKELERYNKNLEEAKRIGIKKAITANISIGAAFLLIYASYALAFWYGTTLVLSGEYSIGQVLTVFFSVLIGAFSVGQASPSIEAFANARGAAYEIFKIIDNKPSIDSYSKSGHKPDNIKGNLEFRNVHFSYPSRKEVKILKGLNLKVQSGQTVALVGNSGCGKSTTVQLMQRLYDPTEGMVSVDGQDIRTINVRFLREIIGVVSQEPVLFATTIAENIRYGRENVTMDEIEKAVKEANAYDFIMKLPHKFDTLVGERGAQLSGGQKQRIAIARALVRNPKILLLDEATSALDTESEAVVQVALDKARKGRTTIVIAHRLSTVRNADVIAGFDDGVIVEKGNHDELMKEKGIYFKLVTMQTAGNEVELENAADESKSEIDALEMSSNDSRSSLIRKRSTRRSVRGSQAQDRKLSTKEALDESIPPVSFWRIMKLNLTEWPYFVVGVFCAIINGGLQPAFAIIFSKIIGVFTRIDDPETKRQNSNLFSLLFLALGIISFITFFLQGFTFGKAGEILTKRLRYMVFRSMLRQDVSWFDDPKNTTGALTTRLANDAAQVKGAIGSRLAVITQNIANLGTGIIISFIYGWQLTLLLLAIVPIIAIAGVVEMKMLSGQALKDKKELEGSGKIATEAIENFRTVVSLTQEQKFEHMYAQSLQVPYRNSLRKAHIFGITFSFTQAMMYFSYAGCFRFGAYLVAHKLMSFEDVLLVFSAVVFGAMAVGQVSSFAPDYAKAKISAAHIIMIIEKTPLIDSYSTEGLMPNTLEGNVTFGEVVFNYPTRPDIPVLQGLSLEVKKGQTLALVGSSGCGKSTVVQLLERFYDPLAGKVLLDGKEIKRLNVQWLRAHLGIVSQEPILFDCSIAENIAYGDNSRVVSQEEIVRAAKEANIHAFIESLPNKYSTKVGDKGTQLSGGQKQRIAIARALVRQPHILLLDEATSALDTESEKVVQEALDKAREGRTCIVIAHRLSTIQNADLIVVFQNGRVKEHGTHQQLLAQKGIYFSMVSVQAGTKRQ
smiles,measurement,value
COC(=O)c1cccc(COc2c(-c3ccc(OCCOCCn4cc(CN(Cc5ccccc5)Cc5cn(CCOCCOc6ccc(-c7oc8ccccc8c(=O)c7OCc7cccc(C(=O)OC)c7)cc6)nn5)nn4)cc3)oc3ccccc3c2=O)c1 [Ac15(Az8)2],EC50,> 3 µM

# Source: publication PMC9653733, “Characterization of a Potent, Selective, and Safe Inhibitor, Ac15(Az8)2, in Reversing Multidrug Resistance Mediated by Breast Cancer Resistance Protein (BCRP/ABCG2)” (International Journal of Molecular Sciences, 2022)
